# Measured values as given in patent US20170121344A1 (Siga Technologies, Inc., priority 2009, published 2017).
# Like-named read-outs stand apart in the source and are kept apart here.
# Key:
# DENV-4 = assay: Viral yield assay against DENV-4 in Vero cells; type: cell-based; details: Dengue virus, DENV4, viral yield assay
# Method in brief: (§1)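 Yield reduction, Vero; MOI 0.1; compound vs DMSO; 37° C; harvest 48 h p.i.; titer on Vero; EC50 fitted. Other serotypes run the same way.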
# DENV-1 = assay: Viral yield assay against DENV-1 in Vero cells; type: cell-based; details: Dengue virus, DENV1, viral yield assay
# Method in brief: as §1
# [1] = tested on: Dengue-2 (Strain New Guinea C); assay: Viral yield assay against Dengue-2 in Vero cells; type: cell-based, Dengue virus; details: Dengue virus, read-out: Activity (EC50 in μM) DENV-2
# Method in brief: as §1
# DENV-3 = assay: Viral yield assay against DENV-3 in Vero cells; type: cell-based; details: Dengue virus, DENV3, viral yield assay
# Method in brief: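 Infect Vero cells with virus (MOI 0.1), add compound or DMSO, incubate at 37° C, collect progeny at 48 hours post infection, then titrate on Vero cells to obtain EC50.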
# [2] = DENV2, viral yield assay, Vero cells, MOI 0.1, 48 hours post infection
Structure (SMILES),EC50 (DENV-4) [µM],EC50 (DENV-1) [µM],"EC50 [1, 2] [µM]",EC50 (DENV-3) [µM],"EC50 ([1]; DENV2, Vero, 48 h) [µM]"
"COc1ccc(-c2ccc3c(N)c(C(=O)Nc4cccc(Br)c4)sc3n2)cc1 [Compound 454, 3-amino-N-(3-bromophenyl)-6-(4-methoxyphenyl)thieno[2,3-b]pyridine-2-carboxamide]",< 5,< 5,< 5,< 5,
"Nc1c(C(=O)Nc2ccc(C(F)(F)F)cc2)sc2nc(-c3ccc(F)cc3)ccc12 [Compound 455, 3-amino-6-(4-fluorophenyl)-N-[4-(trilfuoromethyl)phenyl]thieno[2,3-b] pyridine-2-carboxamide]",5 to 25,< 5,< 5,< 5,
"Cc1ccc(NC(=O)c2sc3nc(-c4cccs4)ccc3c2N)cc1F [Compound 458, 3-amino-N-(3-fluoro-4-methyl-phenyl)-6-(2-thienyl)thieno [2,3-b]pyridine-2-carboxamide]",< 5,< 5,< 5,< 5,
"Nc1c(C(=O)Nc2ccc(C(F)(F)F)cc2)sc2nc(-c3cccs3)ccc12 [Compound 459, 3-amino-6-(2-thienyl)-N-[4-(trifluoromethyl)phenyl]thieno[2,3-b] pyridine-2-carboxamide]",< 5,< 5,< 5,< 5,
"Nc1c(C(=O)Nc2ccc(F)c(F)c2)sc2nc(-c3cccs3)ccc12 [Compound 461, 3-amino-N-(3,4-difluorophenyl)-6-(2-thienyl)thieno[2,3-b]pyridine-2-carboxamide]",< 5,< 5,< 5,< 5,
"Nc1c(C(=O)Nc2ccccc2Br)sc2nc(-c3cccs3)ccc12 [Compound 462, 3-amino-N-(2-bromophenyl)-6-(2-thienyl)thieno[2,3-b]pyridine-2-carboxamide]",< 5,< 5,< 5,< 5,
"Nc1c(C(=O)Nc2cccc(F)c2)sc2nc(-c3cccs3)ccc12 [Compound 464, 3-amino-N-(3-fluorophenyl)-6-(2-thienyl)thieno[2,3-b]pyridine-2-carboxamide]",< 5,< 5,< 5,< 5,
"Nc1c(C(=O)Nc2ccc(C(F)(F)F)cc2)sc2nc(-c3ccncc3)ccc12 [Compound 465, 3-amino-6-(4-pyridyl)-N-[4-(trifluoromethyl)phenyl]thieno[2,3-b] pyridine-2-carboxamide]",< 5,< 5,< 5,< 5,
"COc1ccc(-c2ccc3c(N)c(C(=O)Nc4ccccc4Br)sc3n2)cc1 [Compound 468, 3-amino-N-(2-bromophenyl)-6-(4-methoxyphenyl)thieno[2,3-b]pyridine-2-carboxamide]",< 5,< 5,< 5,< 5,
"COc1ccc(-c2ccc3c(N)c(C(=O)Nc4ccc(Br)cc4)sc3n2)cc1 [Compound 469, 3-amino-N-(4-bromophenyl)-6-(4-methoxyphenyl)thieno[2,3-b]pyridine-2-carboxamide]",< 5,< 5,< 5,< 5,
"Nc1c(C(=O)Nc2cc(F)ccc2F)sc2nc(-c3cccs3)ccc12 [Compound 470, 3-amino-N-(2,5-difluorophenyl)-6-(2-thienyl)thieno[2,3-b]pyridine-2-carboxamide]",< 5,< 5,,< 5,< 5
"Nc1c(C(=O)Nc2ccc(F)cc2F)sc2nc(-c3cccs3)ccc12 [Compound 471, 3-amino-N-(2,4-difluorophenyl)-6-(2-thienyl)thieno[2,3-b]pyridine-2-carboxamide]",< 5,< 5,< 5,< 5,
"COc1ccc(-c2ccc3c(N)c(C(=O)Nc4cccc(C(F)(F)F)c4)sc3n2)cc1 [Compound 472, 3-amino-6-(4-methoxyphenyl)-N-[3-(trifluoromethyl)phenyl]thieno[2,3-b] pyridine-2-carboxamide]",< 5,< 5,< 5,< 5,
"COc1cc(NC(=O)c2sc3nc(-c4cccs4)ccc3c2N)cc(OC)c1OC [Compound 473, 3-amino-6-(2-thienyl)-N-(3,4,5-trimethoxyphenyl)thieno[2,3-b]pyridine-2-carboxamide]",< 5,< 5,,< 5,< 5
"COc1ccc(-c2ccc3c(N)c(C(=O)Nc4ccc(C(F)(F)F)cc4)sc3n2)cc1OC [Compound 475, 3-amino-6-(3,4-dimethoxyphenyl)-N-[4-(trifluoromethyl)phenyl]thieno[2,3-b] pyridine-2-carboxamide]",< 5,< 5,< 5,< 5,
"COc1ccc(-c2ccc3c(N)c(C(=O)Nc4cccc(C(F)(F)F)c4)sc3n2)cc1OC [Compound 476, 3-amino-6-(3,4-dimethoxyphenyl)-N-[3-(trifluoromethyl)phenyl]thieno[2,3-b] pyridine-2-carboxamide]",< 5,< 5,< 5,< 5,
"COC(OC)c1ccc2c(N)c(C(=O)Nc3ccc(C(F)(F)F)cc3)sc2n1 [Compound 482, 3-amino-6-(dimethoxymethyl)-N-[4-(trifluoromethyl)phenyl]thieno[2,3-b] pyridine-2-carboxamide]",< 5,< 5,< 5,< 5,
"CC(=O)c1ccc2c(N)c(C(=O)Nc3ccc(C(F)(F)F)cc3)sc2n1 [Compound 483, 6-acetyl-3-amino-N-[4-(trifluoromethyl)phenyl]thieno[2,3-b] pyridine-2-carboxamide]",< 5,< 5,< 5,< 5,
"Cc1ccc(-c2ccc3c(N)c(C(=O)Nc4ccc(Br)cc4)sc3n2)cc1 [Compound 485, 3-amino-N-(4-bromophenyl)-6-(p-tolyl) thieno[2,3-b]pyridine-2-carboxamide]",< 5,< 5,< 5,< 5,
"Nc1c(C(=O)/N=c2\[nH]c3ccccc3s2)sc2nc(-c3cccs3)ccc12 [Compound 486, (NE)-3-amino-N-(3H-1,3-benzo-thiazol-2-ylidene)-6-(2-thienyl)thieno [2,3-b]pyridine-2-carboxamide]",< 5,< 5,,< 5,< 5
"Nc1c(C(=O)Nc2nnc(-c3ccccc3)s2)sc2nc(-c3cccs3)ccc12 [Compound 488, 3-amino-N-(5-phenyl-1,3,4-thiadiazol-2-yl)-6-(2-thienyl)thieno[2,3-b]pyridine-2-carboxamide]",< 5,< 5,< 5,< 5,
"Nc1c(C(=O)Nc2cccc(F)c2)sc2nc(-c3ccc(F)cc3)ccc12 [Compound 489, 3-amino-N-(3-fluroophenyl)-6-(4-fluroophenyl)thieno[2,3-b]pyridine-2-carboxamide]",< 5,< 5,< 5,< 5,
"Nc1c(C(=O)Nc2ccc(F)cc2)sc2nc(-c3ccc(F)cc3)ccc12 [Compound 490, 3-amino-N,6-bis(4-fluorophenyl) thieno[2,3-b]pyridine-2-carboxamide]",< 5,< 5,< 5,5 to 25,
"COc1ccc(-c2ccc3c(N)c(C(=O)Nc4ccc(F)cc4)sc3n2)cc1 [Compound 491, 3-amino-N-(4-fluorophenyl)-6-(4-methoxyphenyl)thieno[2,3-b]pyridine-2-carboxamide]",< 5,> 25,,5 to 25,< 5
"COc1ccc(-c2ccc3c(N)c(C(=O)Nc4ccc(C(F)(F)F)cc4)sc3n2)cc1 [Compound 492, 3-amino-6-(4-methoxyphenyl)-N-[4-(trifluoromethyl)phenyl]thieno[2,3-b] pyridine-2-carboxamide]",< 5,< 5,< 5,< 5,
"COc1ccc(-c2ccc3c(N)c(C(=O)Nc4ccc(Cl)cc4)sc3n2)cc1 [Compound 493, 3-amino-N-(4-chlorophenyl)-6-(4-methoxyphenyl)thieno[2,3-b]pyridine-2-carboxamide]",< 5,< 5,< 5,< 5,
"COc1ccc(-c2ccc3c(N)c(C(=O)Nc4ccc(C(C)=O)cc4)sc3n2)cc1 [Compound 494, N-(4-acetylphenyl)-3-amino-6-(4-methoxyphenyl)thieno[2,3-b]pyridine-2-carboxamide]",< 5,< 5,,5 to 25,< 5
"COc1cccc(-c2ccc3c(N)c(C(=O)Nc4cc(Cl)ccc4Cl)sc3n2)c1 [Compound 495, 3-amino-N-(2,5-dichlorophenyl)-6-(3-methoxyphenyl)thieno[2,3-b]pyridine-2-carboxamide]",< 5,< 5,< 5,< 5,
"Cc1cc(Br)ccc1NC(=O)c1sc2nc(-c3ccc4c(c3)OCO4)ccc2c1N [Compound 497, 3-amino-6-(1,3-benzodioxol-5-yl)-N-(4-bromo-2-methyl-phenyl)thieno[2,3-b] pyridine-2-carboxamide]",< 5,< 5,< 5,< 5,
